In ChEMBL document CHEMBL5696439 (Cancer Res, 2010):
Active and inactive are the calls of the source. No cut-off for these calls is given here.

Assays:
[1] = target: Aurora kinase B (Homo sapiens) (UniProt Q96GD4); test: Inhibition of recombinant human full-length His-tagged AURKB expressed in insect cells at 2 uM using Ser/Thr 01 as substrate measured after 1 hr by Z'-LYTE assay relative to control; conditions: Insect cell
[2] = tested on: U-87 MG; test: Antitumor activity against human U-87MG cells assessed as lactate production incubated for 24 hrs; assay type: functional, cell-based; conditions: U-87MG ATCC, dose 0.01-10 µmol/L
[3] = target: Dual specificity mitogen-activated protein kinase kinase 1 (Homo sapiens) (UniProt Q02750); test: Inhibition of recombinant human full length His-tagged MAP2K1 expressed in baculovirus expression system at 2 uM using Ser/Thr 03 as substrate measured after 1 hr by Z'-LYTE assay relative to control
[4] = tested on: HeLa; test: Antiproliferative activity against human HeLa cells assessed as cell growth inhibition incubated for 24 hrs by MTS assay; assay type: functional, cell-based
[5] = tested on: A498; test: cells; conditions: Homo sapiens, A498, 72 h
Description: Antiproliferative activity against human A498 cells assessed as cell growth inhibition incubated for 3 days by MTS assay

[6] = target: Serine/threonine-protein kinase 26 (Homo sapiens) (UniProt Q9P289); test: Inhibition of recombinant human full length GST-tagged MST4 expressed in insect cells at 2 uM using Ser/Thr 07 as substrate measured after 1 hr by Z'-LYTE assay relative to control; conditions: Insect cell
[7] = tested on: HCT-116; test: Induction of apoptosis in human HCT-116 cells assessed as increase in PARP cleavage at 0.3 to 3 micromol/L incubated for 48 hrs by Western blot analysis; assay type: functional, cell-based; conditions: dose 0.3-3 µmol/L
[8] = Inhibition of recombinant human full-length His-tagged CDK2/cyclin A expressed in insect cells at 2 uM using Ser/Thr 12 as substrate measured after 1 hr by Z'-LYTE assay relative to control; conditions: Insect cell, condition cancer
[9] = tested on: Rat1; test: Inhibition of mTORC1 in rat Rat1 cells assessed as S6K phosphorylation at T389 level preincubated for 1 hrs in the presence of IGF-1 stimulation by immunoblot assay; assay type: cell-based; conditions: dose 0.01-2 µmol/L
[10] = tested on: Fibroblast growth factor receptor 3 (Homo sapiens), P22607 [K650E]; test: Inhibition of recombinant human His-tagged FGFR3 FGFR3 K650E mutant (398-806 residues) expressed in baculovirus expression system at 2 uM using Tyr 04 as substrate measured after 1 hr by Z'-LYTE assay relative to control
[11] = target: Insulin receptor (Homo sapiens) (UniProt P06213); test: Inhibition of recombinant human GST-tagged INSR (1011-1382 residues) expressed in insect cells at 2 uM using Tyr 01 as substrate measured after 1 hr by Z'-LYTE assay relative to control; conditions: Insect cell
[12] = target: Serine/threonine-protein kinase B-raf (Homo sapiens) (UniProt P15056); test: Inhibition of recombinant human full-length GST tagged BRAF expressed in insect cells at 2 uM using Ser/Thr 03 as substrate measured after 1 hr by Z'-LYTE assay relative to control; conditions: Insect cell
[13] = target: Tyrosine-protein kinase ZAP-70 (Homo sapiens) (UniProt P43403); test: Inhibition of recombinant human full length His-tagged ZAP70 expressed in baculovirus expression system at 2 uM using […] as substrate measured after 1 hr by Z'-LYTE assay relative to control
[14] = tested on: A498; test: Antiproliferative activity against human A498 cells assessed as reduction in cell size at 1 micromol/L incubated for 48 hrs by Flow cytometry analysis relative to control; assay type: functional; set-up: scale not given: the % may be the effect or the level left; conditions: dose 1 µmol/L, at 1 µM
[15] = target: Leukocyte tyrosine kinase receptor (Homo sapiens) (UniProt P29376); test: Inhibition of recombinant human GST-tagged LTK (450-864 residues) expressed in insect cells at 2 uM using Tyr 06 as substrate measured after 1 hr by Z'-LYTE assay relative to control; conditions: Insect cell
[16] = tested on: A549; test: Antitumor activity against VHL null-human A549 cells xenografted in female nude mouse model assessed as suppression in tumor growth at 25 mg/kg, po qd administered as 5 days on/2 days off regimen for 4 cycles relative to control; assay type: functional; conditions: time 28 day
[17] = target: Casein kinase I isoform gamma-1 (Homo sapiens) (UniProt Q9HCP0); test: Inhibition of recombinant human full-length GST-tagged CSNK1G1 expressed in insect cells at 2 uM using Ser/Thr 05 as substrate measured after 1 hr by Z'-LYTE assay relative to control; conditions: Insect cell
[18] = tested on: U-87 MG; test: Antitumor activity against human U-87MG cells assessed as reduction in HIF-1alpha level at 0.025 to 2 micromol/L incubated for 6 hrs by immunoblot analysis; assay type: functional, cell-based; conditions: U-87MG ATCC, dose 0.025-2 µmol/L
[19] = target: Cytoplasmic tyrosine-protein kinase BMX (Homo sapiens) (UniProt P51813); test: Inhibition of recombinant human full-length His-tagged BMX expressed in insect cells at 2 uM using Tyr 01 as substrate measured after 1 hr by Z'-LYTE assay relative to control; conditions: Insect cell
[20] = target: Tyrosine-protein kinase Fgr (Homo sapiens) (UniProt P09769); test: Inhibition of recombinant human full-length His-tagged FGR expressed in insect cells at 2 uM using Tyr 02 as substrate measured after 1 hr by Z'-LYTE assay relative to control; conditions: Insect cell
[21] = tested on: MDA-MB-361; test: Antitumor activity against human MDA-MB-361 cells xenografted in female nude mouse model assessed as suppression in P-S6K at T389 level at 50 mg/kg, po qd administered as 5 days on/2 days off regimen for 4 cycles by immunoblot analysis; assay type: functional, organism-based; conditions: time 28.0 day
[22] = tested on: MDA-MB-361; test: Induction of apoptosis in human MDA-MB-361 cells assessed as induction in cell death at 10 nmol/L incubated for 48 hrs by FACS analysis relative to control; assay type: functional
[23] = tested on: MDA-MB-361; test: Antitumor activity against human MDA-MB-361 cells xenografted in female nude mouse model assessed as suppression in P-S6K at T389 level at 50 mg/kg, iv administered once a week and measured at least 8 hrs by immunoblot analysis; assay type: functional, organism-based
[24] = target: Serine/threonine-protein kinase PAK 2 (Homo sapiens) (UniProt Q13177); test: Inhibition of recombinant human full length GST-tagged PAK2 expressed in insect cells at 2 uM using Ser/Thr 20 as substrate measured after 1 hr by Z'-LYTE assay relative to control; conditions: Insect cell
[25] = tested on: Tyrosine-protein kinase ABL1 (Homo sapiens), P00519 [Y253F]; test: Inhibition of recombinant human full-length His-tagged ABL1 Y253F mutant expressed in insect cells at 2 uM using Tyr 02 as substrate measured after 1 hr by Z'-LYTE assay relative to control; conditions: Insect cell
[26] = target: Macrophage colony-stimulating factor 1 receptor (Homo sapiens) (UniProt P07333); test: Inhibition of recombinant human His-tagged CSF1R (538-910 residues) expressed in baculovirus expression system at 2 uM using Tyr 01 as substrate measured after 1 hr by Z'-LYTE assay relative to control
[27] = target: Mitogen-activated protein kinase 13 (Homo sapiens) (UniProt O15264); test: Inhibition of recombinant human full length His-tagged MAPK13 expressed in baculovirus expression system at 2 uM using Ser/Thr 03 as substrate measured after 1 hr by Z'-LYTE assay relative to control
Mitogen-activated protein kinase 13 (Homo sapiens), sequence (O15264 whole entry): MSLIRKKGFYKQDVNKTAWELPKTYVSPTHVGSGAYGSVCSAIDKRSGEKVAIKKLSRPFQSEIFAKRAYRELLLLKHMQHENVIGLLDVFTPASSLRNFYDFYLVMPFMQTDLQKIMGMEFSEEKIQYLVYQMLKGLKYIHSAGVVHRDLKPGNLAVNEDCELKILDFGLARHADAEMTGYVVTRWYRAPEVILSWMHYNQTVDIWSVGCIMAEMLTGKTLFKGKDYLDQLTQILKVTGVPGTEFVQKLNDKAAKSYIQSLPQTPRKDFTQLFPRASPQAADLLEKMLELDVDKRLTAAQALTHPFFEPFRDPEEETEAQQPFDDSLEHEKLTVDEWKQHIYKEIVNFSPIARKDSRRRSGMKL

Serine/threonine-protein kinase 26 (Homo sapiens), sequence (Q9P289 2-416 limits assumed): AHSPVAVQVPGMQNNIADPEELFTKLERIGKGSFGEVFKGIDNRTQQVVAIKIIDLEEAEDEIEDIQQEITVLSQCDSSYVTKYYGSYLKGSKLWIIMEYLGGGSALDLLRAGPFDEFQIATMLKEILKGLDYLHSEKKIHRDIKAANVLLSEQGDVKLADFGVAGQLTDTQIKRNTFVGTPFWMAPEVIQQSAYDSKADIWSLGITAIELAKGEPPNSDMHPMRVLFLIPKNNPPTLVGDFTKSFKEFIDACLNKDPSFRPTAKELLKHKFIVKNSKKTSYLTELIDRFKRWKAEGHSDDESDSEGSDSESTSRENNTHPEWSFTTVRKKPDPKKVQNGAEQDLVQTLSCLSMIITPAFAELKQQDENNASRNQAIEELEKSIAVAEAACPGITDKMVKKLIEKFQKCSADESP
Tyrosine-protein kinase ZAP-70 (Homo sapiens), sequence (P43403 whole entry): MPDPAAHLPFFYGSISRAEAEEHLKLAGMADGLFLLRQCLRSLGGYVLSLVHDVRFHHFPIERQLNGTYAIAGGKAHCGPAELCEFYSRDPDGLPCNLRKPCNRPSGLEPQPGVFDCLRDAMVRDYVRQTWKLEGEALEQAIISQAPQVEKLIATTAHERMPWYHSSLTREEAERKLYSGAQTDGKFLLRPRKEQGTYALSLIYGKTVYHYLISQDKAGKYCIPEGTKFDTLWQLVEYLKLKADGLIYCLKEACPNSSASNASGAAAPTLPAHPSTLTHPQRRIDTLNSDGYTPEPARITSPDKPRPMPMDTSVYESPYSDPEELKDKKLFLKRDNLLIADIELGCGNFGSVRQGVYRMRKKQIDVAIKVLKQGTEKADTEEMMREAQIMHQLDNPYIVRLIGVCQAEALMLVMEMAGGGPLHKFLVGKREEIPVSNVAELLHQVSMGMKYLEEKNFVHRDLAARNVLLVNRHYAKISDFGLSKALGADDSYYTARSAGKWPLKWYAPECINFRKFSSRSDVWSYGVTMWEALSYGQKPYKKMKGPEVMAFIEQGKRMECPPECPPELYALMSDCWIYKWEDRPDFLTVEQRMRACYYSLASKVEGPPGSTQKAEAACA
Dual specificity mitogen-activated protein kinase kinase 1 (Homo sapiens), sequence (Q02750 whole entry): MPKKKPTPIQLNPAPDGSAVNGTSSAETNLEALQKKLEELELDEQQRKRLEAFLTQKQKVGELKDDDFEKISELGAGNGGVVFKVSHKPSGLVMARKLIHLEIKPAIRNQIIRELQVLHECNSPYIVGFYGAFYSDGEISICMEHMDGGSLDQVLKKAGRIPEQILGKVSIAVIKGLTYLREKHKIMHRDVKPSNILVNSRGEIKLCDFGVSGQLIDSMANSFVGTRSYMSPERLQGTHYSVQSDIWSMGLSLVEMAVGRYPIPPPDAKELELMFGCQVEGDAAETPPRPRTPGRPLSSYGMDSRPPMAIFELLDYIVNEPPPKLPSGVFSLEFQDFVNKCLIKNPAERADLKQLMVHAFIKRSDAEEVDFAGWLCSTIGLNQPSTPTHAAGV
Serine/threonine-protein kinase B-raf (Homo sapiens), sequence (P15056 whole entry): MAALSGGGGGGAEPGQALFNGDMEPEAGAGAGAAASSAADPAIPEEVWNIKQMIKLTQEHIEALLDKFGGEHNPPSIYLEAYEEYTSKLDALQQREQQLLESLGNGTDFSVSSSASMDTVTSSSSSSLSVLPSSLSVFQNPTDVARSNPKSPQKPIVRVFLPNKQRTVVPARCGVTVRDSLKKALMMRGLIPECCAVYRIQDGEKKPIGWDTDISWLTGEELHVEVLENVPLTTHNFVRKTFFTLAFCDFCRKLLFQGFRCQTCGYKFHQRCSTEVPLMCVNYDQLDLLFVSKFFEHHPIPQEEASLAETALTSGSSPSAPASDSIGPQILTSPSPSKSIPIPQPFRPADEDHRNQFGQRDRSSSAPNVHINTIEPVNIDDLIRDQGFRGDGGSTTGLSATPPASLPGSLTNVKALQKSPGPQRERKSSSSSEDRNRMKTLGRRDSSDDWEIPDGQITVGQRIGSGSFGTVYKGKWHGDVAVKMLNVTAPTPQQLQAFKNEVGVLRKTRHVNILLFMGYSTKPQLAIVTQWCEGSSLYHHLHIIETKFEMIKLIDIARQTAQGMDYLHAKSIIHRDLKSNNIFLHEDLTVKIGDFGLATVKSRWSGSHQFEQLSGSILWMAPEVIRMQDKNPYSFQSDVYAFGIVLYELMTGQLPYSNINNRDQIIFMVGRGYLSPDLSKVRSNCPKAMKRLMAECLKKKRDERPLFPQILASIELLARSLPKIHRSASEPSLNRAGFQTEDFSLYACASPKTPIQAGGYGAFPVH
Aurora kinase B (Homo sapiens), sequence (Q96GD4 whole entry): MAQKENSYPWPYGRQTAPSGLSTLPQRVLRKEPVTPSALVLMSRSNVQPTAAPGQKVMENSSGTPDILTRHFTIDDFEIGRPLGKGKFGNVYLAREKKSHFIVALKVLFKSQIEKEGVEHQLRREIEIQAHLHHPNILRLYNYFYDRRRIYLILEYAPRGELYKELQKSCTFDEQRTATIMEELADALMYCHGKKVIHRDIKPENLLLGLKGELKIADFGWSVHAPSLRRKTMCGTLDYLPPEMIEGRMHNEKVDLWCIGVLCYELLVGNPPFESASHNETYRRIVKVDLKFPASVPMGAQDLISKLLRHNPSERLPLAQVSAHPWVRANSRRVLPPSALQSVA
Tyrosine-protein kinase Fgr (Homo sapiens), sequence (P09769 2-529 limits assumed): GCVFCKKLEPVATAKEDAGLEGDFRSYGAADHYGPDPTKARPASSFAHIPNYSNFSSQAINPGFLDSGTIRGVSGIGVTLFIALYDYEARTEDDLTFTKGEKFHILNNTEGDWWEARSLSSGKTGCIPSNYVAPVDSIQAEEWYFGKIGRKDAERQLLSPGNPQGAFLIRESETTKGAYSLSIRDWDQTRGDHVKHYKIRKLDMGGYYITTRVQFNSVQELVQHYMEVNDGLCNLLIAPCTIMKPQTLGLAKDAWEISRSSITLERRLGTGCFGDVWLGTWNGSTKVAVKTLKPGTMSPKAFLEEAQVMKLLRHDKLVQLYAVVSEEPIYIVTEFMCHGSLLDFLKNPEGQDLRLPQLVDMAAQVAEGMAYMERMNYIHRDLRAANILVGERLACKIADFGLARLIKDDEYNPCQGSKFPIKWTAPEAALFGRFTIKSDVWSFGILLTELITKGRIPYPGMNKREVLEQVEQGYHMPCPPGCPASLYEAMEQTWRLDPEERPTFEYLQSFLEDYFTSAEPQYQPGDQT
Fibroblast growth factor receptor 3 (Homo sapiens), P22607 [K650E], sequence (P22607 whole entry K650E, the tested form may be a part): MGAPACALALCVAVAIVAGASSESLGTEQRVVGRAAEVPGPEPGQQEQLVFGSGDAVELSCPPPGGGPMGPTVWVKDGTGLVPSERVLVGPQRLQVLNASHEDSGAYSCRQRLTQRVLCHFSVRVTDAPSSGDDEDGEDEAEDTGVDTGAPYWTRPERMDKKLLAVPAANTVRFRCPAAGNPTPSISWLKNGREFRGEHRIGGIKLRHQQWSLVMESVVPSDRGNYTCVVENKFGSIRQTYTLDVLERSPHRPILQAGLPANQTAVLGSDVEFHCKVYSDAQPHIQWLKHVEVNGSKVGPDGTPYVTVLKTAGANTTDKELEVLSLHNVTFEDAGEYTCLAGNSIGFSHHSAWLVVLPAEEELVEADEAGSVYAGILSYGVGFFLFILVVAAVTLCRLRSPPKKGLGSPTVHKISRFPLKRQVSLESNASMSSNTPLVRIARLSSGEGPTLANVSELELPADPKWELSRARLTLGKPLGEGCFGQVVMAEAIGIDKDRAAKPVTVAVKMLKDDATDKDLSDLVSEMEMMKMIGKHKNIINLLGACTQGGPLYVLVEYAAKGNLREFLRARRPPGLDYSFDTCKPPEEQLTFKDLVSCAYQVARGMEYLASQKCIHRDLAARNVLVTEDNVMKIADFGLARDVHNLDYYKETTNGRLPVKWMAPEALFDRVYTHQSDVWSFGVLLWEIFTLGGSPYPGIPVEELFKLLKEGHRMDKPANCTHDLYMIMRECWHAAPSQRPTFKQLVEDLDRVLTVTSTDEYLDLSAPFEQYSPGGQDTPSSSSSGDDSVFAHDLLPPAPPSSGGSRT
Casein kinase I isoform gamma-1 (Homo sapiens), sequence (Q9HCP0 whole entry, looked up, canonical isoform): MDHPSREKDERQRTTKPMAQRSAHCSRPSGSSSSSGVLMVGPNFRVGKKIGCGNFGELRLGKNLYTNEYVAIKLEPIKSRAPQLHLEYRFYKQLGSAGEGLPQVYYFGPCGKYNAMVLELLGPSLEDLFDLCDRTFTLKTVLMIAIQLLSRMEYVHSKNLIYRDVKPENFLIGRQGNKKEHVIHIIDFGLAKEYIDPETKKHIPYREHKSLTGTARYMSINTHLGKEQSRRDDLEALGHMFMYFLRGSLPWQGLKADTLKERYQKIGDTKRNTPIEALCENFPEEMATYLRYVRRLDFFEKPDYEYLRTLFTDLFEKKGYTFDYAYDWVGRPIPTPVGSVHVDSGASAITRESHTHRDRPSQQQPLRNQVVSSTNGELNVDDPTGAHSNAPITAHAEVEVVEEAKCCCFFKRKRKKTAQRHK

For CNC(=O)Nc1ccc(-c2nc(N3CC4CCC(C3)O4)c3cnn(C4CCC5(CC4)OCCO5)c3n2)cc1, the inhibition [1] was 3%, the Activity [2] was “Dose-Dependent Effect” and the inhibition [3] was 3%. The IC50 [4] was 55 nM, the IC50 [5] was 100 nM and the inhibition [6] was 7%. The Activity [7] was “inactive”, the inhibition at 2 µM [8] was 0% and the inhibition [9] was “Active”. It also gave an inhibition [10] of 6%, an inhibition [11] of 4% and an inhibition [12] of 6%. For the same compound, the inhibition [13] was 7%, the Activity [14] was 83% and the inhibition [15] was 8%. For the same compound, the Activity [16] was 100%, the inhibition [17] was -2% and the Activity [18] was “Active”. The inhibition [19] was 10%, the inhibition [20] was 1% and the Activity [21] was “Active”. The Activity [22] was 6.2%, the Activity [23] was “Active” and the inhibition [24] was 15%. The inhibition [25] was 0%, the inhibition [26] was 7% and the inhibition [27] was 4%.
